Assay results: patent US8822445B2, “Crystalline form of carbapenem derivative or its hydrates and preparation methods and uses thereof” (priority 2010, dated 2014)
Converted amounts (≈) assume the structure as drawn. “Also recorded” adds a separate entry of the source.

Experiments:
[1] = Stability assay at a high temperature of 60° C. (water content, related substances, content); format: physicochemical; conditions: for Content %: HPLC; for Water content %: Karl Fischer method
Experimental: The crystalline form I: prepared by referring to the method of example 1 in CN201010178970.2. The batch number is 20100315-4;
The crystalline form II: prepared by example 2 of the Description. The batch number is 040805.
Test condition: sampled after being placed for 5 and 10 days at a high temperature of 60° C., and the results thus obtained were compared with those obtained at day 0 by measuring water content, related substances and contents thereof. The samples were sealed with plastic bags coated with aluminium foils during the assay.
Water content determination is performed according to the first method (the Karl Fischer method) in Chinese Pharmacopoeia, 2010 edition, Appendix VIII M.
Assay is performed by using the control as the external standard according to the high performance liquid chromatography in Chinese Pharmacopoeia, 2010 edition, Appendix VD.
Apparatus: high performance liquid chromatograph (Agilent 1200 series)
Chromatographic column: Agilent C18; filler: 5 μm octadecyl silane boned silica gel; inner diameter: 4.6 mm; length of the column: 150 mm.
Column temperature: 30° C.
Mobile phase: 0.02 M diammonium phosphate (pH=5.2 adjusted by phosphoric acid): acetonitrile=100:7
Determination of related substances is performed by area normalization method according to the high performance liquid chromatography in Chinese Pharmacopoeia, 2010 edition, Appendix VD.
Chromatographic column: Agilent C18; filler: 5 μm octadecyl silane boned silica gel; inner diameter: 4.6 mm; length of column: 150 mm.
Mobile phase: A: 0.02 M diammonium phosphate (pH=5.2 adjusted by phosphoric acid): acetonitrile=95:5.
B: 0.02 M diammonium phosphate (pH=5.2 adjusted by phosphoric acid): acetonitrile=30:70.
Gradient condition: see Table 1 below.

[2] = test system: ESBLs positive Escherichia coli; test: Antibacterial activity assay, standard agar double dilution method, clinically isolated strains; format: cell-based; conditions: ESBLs positive Escherichia coli clinical isolates
Description: (§1) Test strains: the following clinically isolated strains were provided by public organizations.
(§2) Gram-positive bacteria: methicillin sensitive Staphylococcus aureus (MSSA), and penicillin sensitive Streptococcus pneumoniae;
(§3) Gram-negative bacteria: ESBLs negative Escherichia coli, ESBLs positive Escherichia coli, Haemophilus influenzae, and Moraxelle catarrhalis.
(§4) Test compound: the crystalline form II of compound A
(§5) Experimental method: standard agar double dilution method was adopted.

[3] = test system: ESBLs negative Escherichia coli; test: as above; format: cell-based; conditions: ESBLs negative Escherichia coli clinical isolates
Description: as §1, §2, §3, §4, §5

[4] = test system: methicillin sensitive Staphylococcus aureus (MSSA); test: as above; format: cell-based; conditions: MSSA clinical isolates
Description: as §1, §2, §3, §4, §5

Moraxelle catarrhalis = test: as above; format: cell-based; conditions: Moraxelle catarrhalis clinical isolates
Description: as §1, §2, §3, §4, §5

Haemophilus influenzae = test: as above; format: cell-based; conditions: Haemophilus influenzae clinical isolates
Description: as §1, §2, §3, §4, §5

[5] = test system: penicillin sensitive Streptococcus pneumoniae; test: as above; format: cell-based; conditions: Penicillin sensitive Streptococcus pneumoniae clinical isolates
Description: as §1, §2, §3, §4, §5

[6] = test system: Gram-positive and Gram-negative bacteria; test: Antibacterial activity assay, overall conclusion; format: cell-based; conditions: clinically isolated strains
Description: as §1, §2, §3, §4, §5

[7] = 5 days at 60° C. as compared with day 0
[8] = 10 days at 60° C. as compared with day 0

C[C@@H](O)[C@H]1C(=O)N2C(C(=O)O)=C(S[C@@H]3CN[C@H](C(=O)NCc4ccc(S(N)(=O)=O)cc4)C3)[C@H](C)[C@H]12 [crystalline form II, (4R,5S,6S)-6-((R)-1-hydroxyethyl)-4-methyl-7-oxo-3-(((3S,5S)-5-((4-sulfamoylbenzyl)carbamoyl)pyrrolidin-3-yl)thio)-1-azabicyclo[3.2.0]hept-2-ene-2-carboxylic acid]
stability as compared with the crystalline form I ([1]; 5 and 10 days at 60° C.): superior stability; also recorded: better than that of the crystalline form I
Decrease in content % [1, 7]: 1.57%
Decrease in water content % [1, 7]: 0.026%
Increase open ring % [1, 7]: 0.632%
Increase total % [1, 7]: 0.527%
Related substance % Total % ([1]; 5 days at 60° C., sealed): 1.573%
Related substance % open ring % ([1]; 5 days at 60° C., sealed): 0.789%
Content % ([1]; 5 days at 60° C.): 98.43%
Water content % ([1]; 5 days at 60° C.): 8.290%
Decrease in content % [1, 8]: 2.24%
Decrease in water content % [1, 8]: 0.402%
Increase open ring % [1, 8]: 0.944%
Increase total % [1, 8]: 0.853%
Related substance % Total % ([1]; 10 days at 60° C., sealed): 1.899%
Related substance % open ring % ([1]; 10 days at 60° C., sealed): 1.101%
Content % ([1]; 10 days at 60° C.): 97.76%
Water content % ([1]; 10 days at 60° C.): 7.914%
Related substance % Total % ([1]; day 0): 1.046%
Related substance % open ring % ([1]; day 0): 0.157%
Content % ([1]; day 0): 100%
Water content % ([1]; day 0): 8.316%
MIC90 [2]: 0.25 µg/mL (≈ 0.477 µM)
MICmode [2]: 0.016 mg/L
MIC90 [3]: 0.016 µg/mL (≈ 0.0305 µM)
MICmode [3]: 0.016 mg/L
MICmode [4]: 0.062 mg/L
MIC90 ([4]; Staphylococcus aureus): 0.062 µg/mL (≈ 0.118 µM)
MIC90 (Moraxelle catarrhalis): 0.008 µg/mL (≈ 0.0152 µM)
MICmode (Moraxelle catarrhalis): 0.004 mg/L
MIC90 (Haemophilus influenzae): 0.125 µg/mL (≈ 0.238 µM)
MICmode (Haemophilus influenzae): 0.062 mg/L
MIC90 [5]: 0.031 µg/mL (≈ 0.0591 µM)
MICmode [5]: 0.008 mg/L
antibacterial activity [6]: excellent antibacterial activity against both Gram-positive and Gram-negative bacteria

C[C@@H](O)[C@H]1C(=O)N2C(C(=O)O)=C(S[C@@H]3CN[C@H](C(=O)NCc4ccc(S(N)(=O)=O)cc4)C3)[C@H](C)[C@H]12 [crystalline form I, (4R,5S,6S)-6-((R)-1-hydroxyethyl)-4-methyl-7-oxo-3-(((3S,5S)-5-((4-sulfamoylbenzyl)carbamoyl)pyrrolidin-3-yl)thio)-1-azabicyclo[3.2.0]hept-2-ene-2-carboxylic acid]
Decrease in content % [1, 7]: 3.73%
Decrease in water content % [1, 7]: 0.183%
Increase open ring % [1, 7]: 0.646%
Increase total % [1, 7]: 0.841%
Related substance % Total % ([1]; 5 days at 60° C., sealed): 2.550%
Related substance % open ring % ([1]; 5 days at 60° C., sealed): 0.782%
Content % ([1]; 5 days at 60° C.): 96.27%
Water content % ([1]; 5 days at 60° C.): 7.701%
Decrease in content % [1, 8]: 3.95%
Decrease in water content % [1, 8]: 0.665%
Increase open ring % [1, 8]: 0.984%
Increase total % [1, 8]: 1.167%
Related substance % Total % ([1]; 10 days at 60° C., sealed): 2.876%
Related substance % open ring % ([1]; 10 days at 60° C., sealed): 1.120%
Content % ([1]; 10 days at 60° C.): 96.05%
Water content % ([1]; 10 days at 60° C.): 7.219%
Related substance % Total % ([1]; day 0): 1.709%
Related substance % open ring % ([1]; day 0): 0.136%
Content % ([1]; day 0): 100%
Water content % ([1]; day 0): 7.884%
